From patent US12552825B2 (Zikani Therapeutics, Inc., priority 2019, dated 2026)
In brackets after ≈: the same amount, converted by molar mass.

Experiments:
Format in all cases: cell-based
P. aeruginosa MP-3 = assay: MIC determination by CLSI broth dilution, P. aeruginosa MP-3; conditions: Pseudomonas aeruginosa, MP3, strain MP-3
A. baumannii MP-15 = assay: MIC determination by CLSI broth dilution, A. baumannii MP-15; conditions: Acinetobacter baumannii, MP15, strain MP-15, read-out: MIC A. baumanii MP-15
S. aureus MP-12 = assay: microbe, parasite or virus in culture; conditions: Staphylococcus aureus, MP12, read-out: MIC S. aureus MP-12
E. coli MP-4 = assay: MIC determination by CLSI broth dilution, E. coli MP-4; conditions: Escherichia coli, MP4, CLSI broth dilution; strain MP-4
K. pneumoniae MP-546 = assay: MIC determination by CLSI broth dilution, K. pneumoniae MP-546; conditions: Klebsiella pneumoniae, MP546, CLSI broth dilution; strain MP-546

| SMILES | MIC (P. aeruginosa MP-3) | MIC (A. baumannii MP-15) | MIC (S. aureus MP-12) | MIC (E. coli MP-4) | MIC (K. pneumoniae MP-546) |
| --- | --- | --- | --- | --- | --- |
| CO[C@]1(C)C[C@@H](C)CN(C)[C@@H](CCCN(C)C)COC(=O)C(C)(C)C(=O)[C@H](C)[C@H]1O[C@@H]1O[C@H](C)C[C@H](N(C)C)[C@H]1O [Compound 6, (3S,6R,8R,9R,10R)-9-(((2S,3R,4S,6R)-4-(dimethylamino)-3-hydroxy-6-methyltetrahydro-2H-pyran-2-yl)oxy)-3-(3-(dimethylamino)propyl)-8-methoxy-4,6,8,10,12,12-hexamethyl-1-oxa-4-azacyclotridecane-11,13-dione] | > 32 µg/mL | > 32 µg/mL | > 32 µg/mL | < 4 µg/mL | < 4 µg/mL |
| CNC[C@H]1COC(=O)C(C)(C)C(=O)[C@H](C)[C@@H](O[C@@H]2O[C@H](C)C[C@H](N(C)C)[C@H]2O)[C@](C)(OC)C[C@@H](C)CN1C [Compound 9, (3S,6R,8R,9R,10R)-9-(((2S,3R,4S,6R)-4-(Dimethylamino)-3-hydroxy-6-methyltetrahydro-2H-pyran-2-yl)oxy)-8-methoxy-4,6,8,10,12,12-hexamethyl-3-((methylamino)methyl)-1-oxa-4-azacyclotridecane-11,13-dione] | > 32 µg/mL | > 32 µg/mL | > 32 µg/mL | 4 to 32 µg/mL (≈ 7.36 to 58.9 µM) | 4 to 32 µg/mL (≈ 7.36 to 58.9 µM) |
| CO[C@]1(C)C[C@@H](C)CN(C)[C@@H](CCCN(C)C(C)C)COC(=O)C(C)(C)C(=O)[C@H](C)[C@H]1O[C@@H]1O[C@H](C)C[C@H](N(C)C)[C@H]1O [Compound 11, (3S,6R,8R,9R,10R)-9-(((2S,3R,4S,6R)-4-(dimethylamino)-3-hydroxy-6-methyltetrahydro-2H-pyran-2-yl)oxy)-3-(3-(isopropyl(methyl)amino)propyl)-8-methoxy-4,6,8,10,12,12-hexamethyl-1-oxa-4-azacyclotridecane-11,13-dione] | > 32 µg/mL | > 32 µg/mL | 4 to 32 µg/mL (≈ 6.52 to 52.1 µM) | < 4 µg/mL | < 4 µg/mL |
| CO[C@]1(C)C[C@@H](C)CN[C@H](CCSC)COC(=O)[C@H](C)C(=O)[C@H](C)[C@H]1O[C@@H]1OC(C)CC(N(C)C)C1O (stereo partly shown) [Compound 202] | > 32 µg/mL | > 32 µg/mL | > 32 µg/mL | > 32 µg/mL | – |
| CO[C@]1(C)C[C@@H](C)CN[C@H](CC[S+](C)[O-])COC(=O)[C@H](C)C(=O)[C@H](C)[C@H]1O[C@@H]1OC(C)CC(N(C)C)C1O (stereo partly shown) [Compound 203] | > 32 µg/mL | > 32 µg/mL | > 32 µg/mL | > 32 µg/mL | – |
| CO[C@]1(C)C[C@@H](C)CN[C@H](CO)COC(=O)[C@H](C)C(=O)[C@H](C)[C@H]1O[C@@H]1OC(C)CC(N(C)C)C1O (stereo partly shown) [Compound 204] | > 32 µg/mL | > 32 µg/mL | > 32 µg/mL | > 32 µg/mL | – |
| CO[C@]1(C)C[C@@H](C)CN[C@@H](Cc2c[nH]cn2)COC(=O)[C@H](C)C(=O)[C@H](C)[C@H]1O[C@@H]1OC(C)CC(N(C)C)C1O (stereo partly shown) [Compound 205] | > 32 µg/mL | > 32 µg/mL | > 32 µg/mL | > 32 µg/mL | – |
| CO[C@]1(C)C[C@@H](C)CN[C@@H](C)COC(=O)[C@H](C)C(=O)[C@H](C)[C@H]1O[C@@H]1OC(C)CC(N(C)C)C1O (stereo partly shown) [Compound 206] | > 32 µg/mL | > 32 µg/mL | > 32 µg/mL | 4 to 32 µg/mL (≈ 8.22 to 65.8 µM) | – |
| CO[C@]1(C)C[C@@H](C)CN[C@H](C)COC(=O)[C@H](C)C(=O)[C@H](C)[C@H]1O[C@@H]1OC(C)CC(N(C)C)C1O (stereo partly shown) [Compound 207] | > 32 µg/mL | > 32 µg/mL | > 32 µg/mL | > 32 µg/mL | – |
| CO[C@]1(C)C[C@@H](C)CN[C@@H](Cc2ccccc2)COC(=O)[C@H](C)C(=O)[C@H](C)[C@H]1O[C@@H]1OC(C)CC(N(C)C)C1O (stereo partly shown) [Compound 208] | > 32 µg/mL | > 32 µg/mL | 4 to 32 µg/mL (≈ 7.11 to 56.9 µM) | > 32 µg/mL | – |
| CO[C@]1(C)C[C@@H](C)CN[C@@H](Cc2ccc(O)cc2)COC(=O)[C@H](C)C(=O)[C@H](C)[C@H]1O[C@@H]1OC(C)CC(N(C)C)C1O (stereo partly shown) [Compound 209] | > 32 µg/mL | > 32 µg/mL | 4 to 32 µg/mL (≈ 6.91 to 55.3 µM) | > 32 µg/mL | – |
| CC[C@H]1OC(=O)[C@H](C)C(=O)[C@H](C)[C@@H](O[C@@H]2OC(C)CC(N(C)C)C2O)[C@](C)(OC)C[C@@H](C)CN[C@H]1C (stereo partly shown) [Compound 210] | > 32 µg/mL | > 32 µg/mL | > 32 µg/mL | > 32 µg/mL | – |
| CC[C@H]1OC(=O)[C@H](C)C(=O)[C@H](C)[C@@H](O[C@@H]2OC(C)CC(N(C)C)C2O)[C@](C)(OC)C[C@@H](C)CN(C)[C@H]1C (stereo partly shown) [Compound 211] | > 32 µg/mL | > 32 µg/mL | > 32 µg/mL | > 32 µg/mL | – |
| CO[C@]1(C)C[C@@H](C)CNC(CO)(CO)COC(=O)[C@H](C)C(=O)[C@H](C)[C@H]1O[C@@H]1OC(C)CC(N(C)C)C1O (stereo partly shown) [Compound 212] | > 32 µg/mL | > 32 µg/mL | > 32 µg/mL | > 32 µg/mL | – |
| C=C[C@@H]1COC(=O)[C@H](C)C(=O)[C@H](C)[C@@H](O[C@@H]2OC(C)CC(N(C)C)C2O)[C@](C)(OC)C[C@@H](C)CN1 (stereo partly shown) [Compound 213] | > 32 µg/mL | > 32 µg/mL | > 32 µg/mL | > 32 µg/mL | – |
| CC[C@@H]1COC(=O)[C@H](C)C(=O)[C@H](C)[C@@H](OC2OC(C)CC(N(C)C)C2O)[C@](C)(OC)C[C@@H](C)CN1 (stereo partly shown) [Compound 215] | > 32 µg/mL | > 32 µg/mL | > 32 µg/mL | > 32 µg/mL | – |
| CO[C@]1(C)C[C@@H](C)CN[C@H](CNC2COC2)COC(=O)[C@H](C)C(=O)[C@H](C)[C@H]1O[C@@H]1O[C@H](C)C[C@H](N(C)C)[C@H]1O [Compound 216] | > 32 µg/mL | > 32 µg/mL | > 32 µg/mL | 4 to 32 µg/mL (≈ 7.17 to 57.4 µM) | – |
| CO[C@]1(C)C[C@@H](C)CN[C@H](CNCc2ccc(F)cn2)COC(=O)[C@H](C)C(=O)[C@H](C)[C@H]1O[C@@H]1O[C@H](C)C[C@H](N(C)C)[C@H]1O [Compound 217] | > 32 µg/mL | > 32 µg/mL | > 32 µg/mL | > 32 µg/mL | – |
| CO[C@]1(C)C[C@@H](C)CN[C@H](Cn2cc(-c3cccc(N)n3)nn2)COC(=O)[C@H](C)C(=O)[C@H](C)[C@H]1O[C@@H]1O[C@H](C)C[C@H](N(C)C)[C@H]1O [Compound 219, (3R,6R,8R,9R,10R)-3-((4-(6-aminopyridin-2-yl)-1H-1,2,3-triazol-1-yl)methyl)-9-(((2S,3R,4S,6R)-4-(dimethylamino)-3-hydroxy-6-methyltetrahydro-2H-pyran-2-yl)oxy)-8-methoxy-6,8,10,12-tetramethyl-1-oxa-4-azacyclotridecane-11,13-dione] | > 32 µg/mL | > 32 µg/mL | > 32 µg/mL | > 32 µg/mL | – |
| CO[C@]1(C)C[C@@H](C)CN[C@H](CNCCCCCCn2ccnn2)COC(=O)[C@H](C)C(=O)[C@H](C)[C@H]1O[C@@H]1O[C@H](C)C[C@H](N(C)C)[C@H]1O [Compound 220] | > 32 µg/mL | > 32 µg/mL | > 32 µg/mL | > 32 µg/mL | – |
| CO[C@]1(C)C[C@@H](C)CN[C@H](CN)COC(=O)[C@H](C)C(=O)[C@H](C)[C@H]1O[C@@H]1OC(C)CC(N(C)C)C1O (stereo partly shown) [Compound 221] | – | – | > 32 µg/mL | – | > 32 µg/mL |
